Measurements from PMC10535864, “Novel Aminopyrimidine-2,4-diones, 2-Thiopyrimidine-4-ones, and 6-Arylpteridines as Dual-Target Inhibitors of BRD4/PLK1: Design, Synthesis, Cytotoxicity, and Computational Studies” (Pharmaceuticals, 2023).

What was measured:
Assay type in all cases: cell-based
[1] = MTT cytotoxicity assay, U-937; details: Homo sapiens, U-937, U937, MTT;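 further: Six-dose MTT colorimetric assay on cell monolayers, formazan absorbance read at 560 nm with 620 nm background removed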
Experimental: (§6) Using a six-dose MTT colorimetric assay [44, 66], all new synthetic compounds were tested for cytotoxicity against three cancer cell lines: MDA-MB-231 breast cancer cells, HT-29 colorectal adenocarcinoma cells, and U-937 renal cancer cells. […] These cell lines were supplied by ATCC (American Type Culture Collection) via the Holding company for biological products and vaccines (VACSERA, Cairo, Egypt). The reference control used was Methotrexate.
(§7) Using a six-dose MTT colorimetric assay [44, 66], allnew synthetic compounds were tested for cytotoxicity against three cancer cell lines: MDA-MB-231 breast cancer cells,HT-29 colorectal adenocarcinoma cells, and U-937 renal
(§8) The cell lines were supplied by ATCC (American Type Culture Collection). The reference control used was Methotrexate. The cytotoxic activities of the examined compounds were quantified by inoculating a 96-well tissue culture plate with 1 X 10^5 cells / mL (100 uL/well) and incubating it at 37°C for 24 hours to develop a complete monolayer sheet. After forming a confluent sheet of cells, the growth medium was decanted from 96-well microtiter plates, and the cell monolayer was washed twice with wash media. Two-fold dilutions of tested samples were made in RPMI medium with 2% serum (maintenance medium), and 0.1 mL of each dilution was tested in different wells, with three wells serving as controls and receiving only maintenance medium. Following that, the plate was incubated at 37°C and examined. Cells were investigated for any physical signs of toxicity, such as partial or complete monolayer loss, rounding, shrinkage, or cell granulation. MTT solution was prepared (5mg/ml in PBS) (BIO BASIC CANADA INC), and 20 uL MTT solution was added to each well. After 5 minutes on a shaking table at150 rpm to thoroughly mix the MTT into the media, it was incubated (37C, 5% CO2) for 4 hours to allow the MTT to be metabolized. Formazan (MTT metabolic product) was resuspended in 200 uL DMSO and shaken at 150 rpm for 5 minutes to thoroughly mix the formazan into the solvent. The optical density was measured at 560 nm, and the background was subtracted at 620 nm. Finally, the IC50 of the test compound in comparison to the reference was calculated using the GraphPad Prism software.

[2] = system: U-937 renal cancer cells; experiment: MTT cytotoxicity assay, U-937; details: MTT; for IC50: Homo sapiens, U-937, mean of three independent experiments ± SD, read-out: IC50 Value U-937; for Toxicity %: U937;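 on all read-outs here: Six-dose MTT colorimetric assay on cell monolayers, formazan absorbance read at 560 nm with 620 nm background removed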
Experimental: as §6, §7, §8

[3] = system: MDA-MB-231 breast cancer cells; experiment: MTT cytotoxicity assay, MDA-MB-231; details: MDA-MB-231, MTT; for IC50: mean of three independent experiments ± SD, read-out: IC50 Value MDA-MB-231
Experimental: (§1) All newly synthetic compounds were tested for cytotoxicity using a six-dose MTT colorimetric assay on three cancer cell lines; namely, breast cancer cells (MDA-MB-231), colorectal adenocarcinoma cells (HT-29) and renal cancer cells (U-937). […] However, renal cancer cells (U-937) were discovered to be the least sensitive.
(§2) Using a six-dose MTT colorimetric assay, all new synthetic compounds were tested for cytotoxicity against three cancer cell lines: MDA-MB-231 breast cancer cells, HT-29 colorectal adenocarcinoma cells, and U-937 renal cancer cells. […] These cell lines were supplied by ATCC (American Type Culture Collection) via the Holding company for biological products and vaccines (VACSERA, Cairo, Egypt). The reference control used was Methotrexate. Detailed descriptions of the MTT colorimetric assay’s protocol can be found in the Supplementary file.
(§3) 1.1.In-vitro cytotoxicity screening
(§4) Using a six-dose MTT colorimetric assay, allnew synthetic compounds were tested for cytotoxicity against three cancer cell lines: MDA-MB-231 breast cancer cells,HT-29 colorectal adenocarcinoma cells, and U-937 renal […]
(§5) The cell lines were supplied by ATCC (American Type Culture Collection). The reference control used was Methotrexate. The cytotoxic activities of the examined compounds were quantified by inoculating a 96-well tissue culture plate with 1 X 10^5 cells / mL (100 uL/well) and incubating it at 37°C for 24 hours to develop a complete monolayer sheet. After forming a confluent sheet of cells, the growth medium was decanted from 96-well microtiter plates, and the cell monolayer was washed twice with wash media. Two-fold dilutions of tested samples were made in RPMI medium with 2% serum (maintenance medium), and 0.1 mL of each dilution was tested in different wells, with three wells serving as controls and receiving only maintenance medium. Following that, the plate was incubated at 37°C and examined. Cells were investigated for any physical signs of toxicity, such as partial or complete monolayer loss, rounding, shrinkage, or cell granulation. MTT solution was prepared (5mg/ml in PBS) (BIO BASIC CANADA INC), and 20 uL MTT solution was added to each well. After 5 minutes on a shaking table at150 rpm to thoroughly mix the MTT into the media, it was incubated (37°C, 5% CO2) for 4 hours to allow the MTT to be metabolized. Formazan (MTT metabolic product) was resuspended in 200 uL DMSO and shaken at 150 rpm for 5 minutes to thoroughly mix the formazan into the solvent. The optical density was measured at 560 nm, and the background was subtracted at 620 nm. Finally, the IC50 of the test compound in comparison to the reference was calculated using the GraphPad Prism software. […]

[4] = MTT cytotoxicity assay, normal Vero cells; details: African green monkey, normal Vero cells, MTT;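 further: monolayers exposed to two-fold dilutions in 2% serum medium, MTT added for 4 h, formazan in DMSO read at 560 nm minus 620 nm, controls given medium alone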
Experimental: as §6, §7, §8

[5] = system: normal Vero cells; experiment: MTT cytotoxicity assay, normal Vero cells; details: Vero, MTT;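 further: monolayers exposed to two-fold dilutions in 2% serum medium, MTT added for 4 h, formazan in DMSO read at 560 nm minus 620 nm, controls given medium alone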
Experimental: as §6, §7, §8

[6] = system: HT-29 colorectal adenocarcinoma cells; experiment: MTT cytotoxicity assay, HT-29; details: MTT; for IC50: mean of three independent experiments ± SD, read-out: IC50 Value HT-29
Experimental: as §1, §2, §3, §4, §5

[7] = Homo sapiens, HT-29, HT29, 0.312 uM
[8] = Homo sapiens, HT-29, HT29, 0.625 uM
[9] = Homo sapiens, HT-29, HT29, 1.25 uM
[10] = Homo sapiens, HT-29, HT29, 2.5 uM
[11] = Homo sapiens, HT-29, HT29, 5 uM
[12] = Homo sapiens, HT-29, HT29, 10 uM

CN(Cc1cnc2nc(N)nc(N)c2n1)c1ccc(C(=O)N[C@@H](CCC(=O)O)C(=O)O)cc1 [Methotrexate, reference compound]
viability at 0.078 µM ([1]; 0.078 uM): 99.9% | viability at 0.156 µM ([1]; 0.156 uM): 99.9% | viability at 0.312 µM [1]: 98.9% | viability at 0.625 µM [1]: 96.9% | viability at 1.25 µM [1]: 47.5% | viability at 2.5 µM [1]: 31.5% | viability at 5 µM [1]: 8.38% | viability at 10 µM [1]: 7.63% | IC50 [2]: 1220 ± 20 nM | Toxicity % ([2]; 0.078 uM): 0.1004% | Toxicity % ([2]; 0.156 uM): 0.0502% | Toxicity % ([2]; 0.312 uM): 1.104% | Toxicity % ([2]; 0.625 uM): 3.112% | Toxicity % ([2]; 1.25 uM): 52.46% | Toxicity % ([2]; 2.5 uM): 68.47% | Toxicity % ([2]; 5 uM): 91.62% | Toxicity % ([2]; 10 uM): 92.37% | IC50 ([3]; Homo sapiens): 2790 ± 60 nM | viability at 0.078 µM ([3]; Homo sapiens, 0.078 uM): 99.9% | viability at 0.156 µM ([3]; Homo sapiens, 0.156 uM): 99.7% | viability at 0.312 µM ([3]; Homo sapiens, 0.312 uM): 99.6% | viability at 0.625 µM ([3]; Homo sapiens, 0.625 uM): 99.8% | viability at 1.25 µM ([3]; Homo sapiens, 1.25 uM): 81.5% | viability at 2.5 µM ([3]; Homo sapiens, 2.5 uM): 42.4% | viability at 5 µM ([3]; Homo sapiens, 5 uM): 19.5% | viability at 10 µM ([3]; Homo sapiens, 10 uM): 11.8% | Toxicity % ([3]; 0.078 uM): 0.0883% | Toxicity % ([3]; 0.156 uM): 0.2649% | Toxicity % ([3]; 0.312 uM): 0.3532% | Toxicity % ([3]; 0.625 uM): 0.2208% | Toxicity % ([3]; 1.25 uM): 18.45% | Toxicity % ([3]; 2.5 uM): 57.62% | Toxicity % ([3]; 5 uM): 80.53% | Toxicity % ([3]; 10 uM): 88.17% | IC50 ([4]; mean of three independent experiments ± SD, read-out: In Vitro Cytotoxicity against Normal Cells IC50 Value, Vero Cells): 10200 ± 300 nM | viability at 0.312 µM ([4]; Vero, 0.312 uM): 99.7% | viability at 0.625 µM ([4]; Vero, 0.625 uM): 100% | viability at 1.25 µM ([4]; Vero, 1.25 uM): 99.3% | viability at 2.5 µM ([4]; Vero, 2.5 uM): 97.3% | viability at 5 µM ([4]; Vero, 5 uM): 87.6% | viability at 10 µM ([4]; Vero, 10 uM): 50.2% | Toxicity % ([5]; 0.312 uM): 0.3046% | Toxicity % ([5]; 0.625 uM): 0.04352% | Toxicity % ([5]; 1.25 uM): 0.7398% | Toxicity % ([5]; 2.5 uM): 2.698% | Toxicity % ([5]; 5 uM): 12.45% | Toxicity % ([5]; 10 uM): 49.78% | Toxicity % ([6]; HT29, 0.078 uM): 0.5016% | Toxicity % ([6]; HT29, 0.156 uM): 0.912% | Toxicity % ([6]; HT29, 0.312 uM): 0.228% | Toxicity % ([6]; HT29, 0.625 uM): 26.95% | Toxicity % ([6]; HT29, 1.25 uM): 66.94% | Toxicity % ([6]; HT29, 2.5 uM): 89.83% | Toxicity % ([6]; HT29, 5 uM): 97.45% | Toxicity % ([6]; HT29, 10 uM): 97.58% | viability at 0.078 µM ([6]; Homo sapiens, HT-29, HT29, 0.078 uM): 99.5% | viability at 0.156 µM ([6]; Homo sapiens, HT-29, HT29, 0.156 uM): 99.1% | viability at 0.312 µM [6, 7]: 99.8% | viability at 0.625 µM [6, 8]: 73.1% | viability at 1.25 µM [6, 9]: 33.1% | viability at 2.5 µM [6, 10]: 10.2% | viability at 5 µM [6, 11]: 2.55% | viability at 10 µM [6, 12]: 2.42% | IC50 ([6]; Homo sapiens, HT-29): 990 ± 20 nM

Cn1c(SCC(=O)c2ccc([N+](=O)[O-])cc2)nc(=O)c(/N=C(/CBr)c2ccc([N+](=O)[O-])cc2)c1N [Compound 8, (E)-6-Amino-5-((2-bromo-1-(4-nitrophenyl)ethylidene)amino)-1-methyl-2-((2-(4-nitrophenyl)-2-oxoethyl)thio)pyrimidin-4(1H)-one]
viability at 0.312 µM [1]: 99.6% | viability at 0.625 µM [1]: 99.3% | viability at 1.25 µM [1]: 99.9% | viability at 2.5 µM [1]: 99.8% | viability at 5 µM [1]: 79.6% | viability at 10 µM [1]: 27.6% | IC50 [2]: 7770 ± 40 nM | Toxicity % ([2]; 0.312 uM): 0.3813% | Toxicity % ([2]; 0.625 uM): 0.6536% | Toxicity % ([2]; 1.25 uM): 0.05447% | Toxicity % ([2]; 2.5 uM): 0.2179% | Toxicity % ([2]; 5 uM): 20.42% | Toxicity % ([2]; 10 uM): 72.39% | IC50 ([3]; Homo sapiens): 2310 ± 60 nM | viability at 0.312 µM ([3]; Homo sapiens, 0.312 uM): 97.6% | viability at 0.625 µM ([3]; Homo sapiens, 0.625 uM): 95.3% | viability at 1.25 µM ([3]; Homo sapiens, 1.25 uM): 83.8% | viability at 2.5 µM ([3]; Homo sapiens, 2.5 uM): 43.7% | viability at 5 µM ([3]; Homo sapiens, 5 uM): 35.9% | viability at 10 µM ([3]; Homo sapiens, 10 uM): 35.4% | Toxicity % ([3]; 0.312 uM): 2.394% | Toxicity % ([3]; 0.625 uM): 4.743% | Toxicity % ([3]; 1.25 uM): 16.18% | Toxicity % ([3]; 2.5 uM): 56.29% | Toxicity % ([3]; 5 uM): 64.1% | Toxicity % ([3]; 10 uM): 64.58% | Toxicity % ([6]; HT29, 0.312 uM): 0.08613% | Toxicity % ([6]; HT29, 0.625 uM): 0.1292% | Toxicity % ([6]; HT29, 1.25 uM): 0.5599% | Toxicity % ([6]; HT29, 2.5 uM): 0.3876% | Toxicity % ([6]; HT29, 5 uM): 50.34% | Toxicity % ([6]; HT29, 10 uM): 77.91% | viability at 0.312 µM [6, 7]: 99.9% | viability at 0.625 µM [6, 8]: 99.9% | viability at 1.25 µM [6, 9]: 99.4% | viability at 2.5 µM [6, 10]: 99.6% | viability at 5 µM [6, 11]: 49.7% | viability at 10 µM [6, 12]: 22.1% | IC50 ([6]; Homo sapiens, HT-29): 6480 ± 80 nM
